The values below come from patent publication US10766888B1, “HMOX1 inducers” (Mitobridge Inc., priority 2019, dated 2020).

≈ marks a conversion by molar mass, not a printed value. Where only a bound is given, the exact number is not on record here.

The test system of data set [1] is Human Heme Oxygenase-1 (HMOX-1). Put plainly: ELISA assay to measure human heme oxygenase-1 (HMOX-1) in HepG2 lysate. It is filed as cell-based. Particulars: human HMOX1 protein level in HepG2 lysate; * = average of 2 or more EC50 determinations; NA = Not Active; read-out: EC50. An outline of the steps:
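Treated HepG2 cells were lysed in PBS with 0.5% Triton X100, 1 mM EDTA and protease inhibitors, and lysates were diluted 1:20. HO-1 was measured by sandwich ELISA (biotinylated detection antibody, streptavidin-HRP, chemiluminescence) at room temperature against a standard curve from 20 ng/ml. EC50 and fold change were expressed relative to DMSO control.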
(In general: In an ELISA, binding on a coated surface is turned into a signal by an enzyme label.)

Data set [2] in a line: Kinetic solubility. It is filed as physicochemical. Particulars: Dulbecco's phosphate buffer saline (DPBS), aqueous buffer, kinetic from dmso stock, DPBS pH 7.4, 25° C., 200 μM test compound. A digest of the protocol:
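Compound from 10 mM DMSO stock diluted to 200 μM final in DPBS pH 7.4 and, separately, in DMSO, in duplicate. Shaken 16 h at 25 °C, then centrifuged 20 min at 25 °C. Supernatant analysed by HPLC.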

As a reminder, the EC50 is the concentration at which the effect is half-maximal. A word on the solubility: it is how much of the substance goes into solution per volume.

Regarding `Cn1c(Nc2nc3ccc(OCCO)cc3o2)nc2cc(C(=O)NCCO)ccc21` [Example 103, 2-((6-(2-hydroxyethoxy)benzo[d]oxazol-2-yl)amino)-N-(2-hydroxyethyl)-1-methyl-1H-benzo[d]imidazole-5-carboxamide], in data set [1], the half-maximal effective concentration (EC50) was 3100 nM. For the same molecule, the solubility at 16 h in data set [2] is above 20 µM.

Consider `Cn1c(Nc2nc3ccc(OCCO)cc3o2)nc2cc(C(=O)NCCOCCO)ccc21` [Example 104, 2-((6-(2-hydroxyethoxy)benzo[d]oxazol-2-yl)amino)-N-(2-(2-hydroxyethoxy)ethyl)-1-methyl-1H-benzo[d]imidazole-5-carboxamide], for which, in data set [1], the EC50 stood at 3700 nM. This molecule registered a solubility at 16 h in data set [2] of 6.6 µM (≈ 3.01 µg/mL).

Consider `Cn1c(Nc2nc3cc(F)c(C(F)(F)F)cc3o2)nc2cc(C(=O)NCCO)ccc21` [Example 108, 2-((5-fluoro-6-(trifluoromethyl)benzo[d]oxazol-2-yl)amino)-N-(2-hydroxyethyl)-1-methyl-1H-benzo[d]imidazole-5-carboxamide], for which the concentration giving a half-maximal response (EC50) in data set [1] came out at 1500 nM. The solubility at 16 h in data set [2] is 0.3 µM (≈ 0.131 µg/mL).

As to `COCCNC(=O)c1ccc2c(c1)nc(Nc1nc3cccnc3o1)n2C` [Example 109, N-(2-methoxyethyl)-1-methyl-2-(oxazolo[5,4-b]pyridin-2-ylamino)-1H-benzo[d]imidazole-5-carboxamide], the half-maximal effective concentration (EC50) in data set [1] was 6100 nM. In data set [2], the solubility at 16 h was found to be 7.4 µM (≈ 2.71 µg/mL).

As for `Cn1c(Nc2nc3cccnc3o2)nc2cc(C(=O)NCCO)ccc21` [Example 110, N-(2-hydroxyethyl)-1-methyl-2-(oxazolo[5,4-b]pyridin-2-ylamino)-1H-benzo[d]imidazole-5-carboxamide], the EC50 in data set [1] came out at 7600 nM. In data set [2], this molecule showed a solubility at 16 h of 18.9 µM (≈ 6.66 µg/mL).

On to `Cn1c(Nc2nc3cccc(C(F)(F)F)c3o2)nc2cc(C(=O)NCCOCCO)ccc21` [Example 117, N-(2-(2-hydroxyethoxy)ethyl)-1-methyl-2-((7-(trifluoromethyl)benzo[d]oxazol-2-yl)amino)-1H-benzo[d]imidazole-5-carboxamide], for which the concentration for a half-maximal effect (EC50) in data set [1] was 1800 nM. Also, in data set [2], the solubility at 16 h came to 1.2 µM (≈ 0.556 µg/mL).

As to `COCCONC(=O)c1ccc2c(c1)nc(Nc1nc3ccccc3o1)n2C` [Example 119, 2-(benzo[d]oxazol-2-ylamino)-N-(2-methoxyethoxy)-1-methyl-1H-benzo[d]imidazole-5-carboxamide], the half-maximal effective concentration (EC50) in data set [1] was found to be 600 nM. In data set [2], the solubility at 16 h came out at 0.5 µM (≈ 0.191 µg/mL).

For `CC(O)CONC(=O)c1ccc2c(c1)nc(Nc1nc3ccccc3o1)n2C` (stereo not shown) [Example 120, 2-(benzo[d]oxazol-2-ylamino)-N-(2-hydroxypropoxy)-1-methyl-1H-benzo[d]imidazole-5-carboxamide], the half-maximal effective concentration (EC50) in data set [1] is 2000 nM. Besides, in data set [2], the solubility at 16 h amounted to 6.5 µM (≈ 2.48 µg/mL).

On to `Cn1c(Nc2nc3ccc(C(F)(F)F)cc3o2)nc2cc(C(=O)NOCCO)ccc21` [Example 125, N-(2-hydroxyethoxy)-1-methyl-2-((6-(trifluoromethyl)benzo[d]oxazol-2-yl)amino)-1H-benzo[d]imidazole-5-carboxamide], for which the concentration for a half-maximal effect (EC50) in data set [1] was determined as 300 nM. The molecule further came in with a solubility at 16 h in data set [2] of 3.5 µM (≈ 1.52 µg/mL).

With `Cn1c(Nc2nc3ccc(OC(F)(F)F)cc3o2)nc2cc(C(=O)NOCCO)ccc21` [Example 126, N-(2-hydroxyethoxy)-1-methyl-2-((6-(trifluoromethoxy)benzo[d]oxazol-2-yl)amino)-1H-benzo[d]imidazole-5-carboxamide], in data set [1], the EC50 worked out at 500 nM. In data set [2], the solubility at 16 h is 2.1 µM (≈ 0.948 µg/mL).

Regarding `COCCONC(=O)c1ccc2c(c1)nc(Nc1nc3ccc(OC(F)(F)F)cc3o1)n2C` [Example 127, N-(2-methoxyethoxy)-1-methyl-2-((6-(trifluoromethoxy)benzo[d]oxazol-2-yl)amino)-1H-benzo[d]imidazole-5-carboxamide], the concentration for a half-maximal effect (EC50) in data set [1] amounted to 500 nM. The solubility at 16 h in data set [2] was below 2 µM.

Turning to `Cn1c(Nc2nc3ccc(OCCO)cc3o2)nc2cc(C(=O)NOCCO)ccc21` [Example 129, N-(2-hydroxyethoxy)-2-((6-(2-hydroxyethoxy)benzo[d]oxazol-2-yl)amino)-1-methyl-1H-benzo[d]imidazole-5-carboxamide], the EC50 in data set [1] is 3400 nM. Further, the solubility at 16 h in data set [2] stood at 14.1 µM (≈ 6.03 µg/mL).

Turning to `Cn1c(Nc2nc3cc(F)c(C(F)(F)F)cc3o2)nc2cc(C(=O)NOCCO)ccc21` [Example 130, 2-((5-fluoro-6-(trifluoromethyl)benzo[d]oxazol-2-yl)amino)-N-(2-hydroxyethoxy)-1-methyl-1H-benzo[d]imidazole-5-carboxamide], the concentration for a half-maximal effect (EC50) in data set [1] came out at 740 nM. In data set [2], the solubility at 16 h was below 2 µM.

For the molecule `CC1CCc2nc(Nc3nc4cc(C(=O)NOCCO)ccc4n3C)sc2C1` (stereo not shown) [Example 131, N-(2-hydroxyethoxy)-1-methyl-2-((6-methyl-4,5,6,7-tetrahydrobenzo[d]thiazol-2-yl)amino)-1H-benzo[d]imidazole-5-carboxamide], the half-maximal effective concentration (EC50) in data set [1] amounted to 1400 nM. In data set [2], this molecule gave a solubility at 16 h of 6.7 µM (≈ 2.69 µg/mL).

For the molecule `COCCONC(=O)c1ccc2c(c1)nc(Nc1nc3ccc(C(C)=O)cc3o1)n2C` [Example 132, 2-((6-acetylbenzo[d]oxazol-2-yl)amino)-N-(2-methoxyethoxy)-1-methyl-1H-benzo[d]imidazole-5-carboxamide], in data set [1], the EC50 was 1500 nM. Also, the solubility at 16 h in data set [2] is 3.1 µM (≈ 1.31 µg/mL).

Take `Cn1c(Nc2nc3ccc(C(C)(C)O)cc3o2)nc2cc(C(=O)NCCO)ccc21` [Example 133, N-(2-hydroxyethyl)-2-((6-(2-hydroxypropan-2-yl)benzo[d]oxazol-2-yl)amino)-1-methyl-1H-benzo[d]imidazole-5-carboxamide]: in data set [1], the EC50 came to 5300 nM. The molecule also yielded a solubility at 16 h in data set [2] of 9.2 µM (≈ 3.77 µg/mL).

As to `Cn1c(Nc2nc3ccc(-c4cscn4)cc3o2)nc2cc(C(=O)NCCOCCO)ccc21` [Example 134, N-(2-(2-hydroxyethoxy)ethyl)-1-methyl-2-((6-(thiazol-4-yl)benzo[d]oxazol-2-yl)amino)-1H-benzo[d]imidazole-5-carboxamide], in data set [1], the EC50 was determined as 1400 nM. The same molecule returned a solubility at 16 h in data set [2] below 2 µM.

Regarding `Cn1c(Nc2nc3ccc(N4CCOCC4)cc3o2)nc2cc(C(=O)NCCOCCO)ccc21` [Example 136, N-(2-(2-hydroxyethoxy)ethyl)-1-methyl-2-((6-morpholinobenzo[d]oxazol-2-yl)amino)-1H-benzo[d]imidazole-5-carboxamide], the concentration giving a half-maximal response (EC50) in data set [1] was found to be 2900 nM. In data set [2], this molecule came in with a solubility at 16 h of 10.6 µM (≈ 5.09 µg/mL).

Turning to `Cn1c(Nc2nc3ccccc3o2)nc2cc(C(=O)C(F)(F)F)ccc21` [Example 139, 1-(2-(benzo[d]oxazol-2-ylamino)-1-methyl-1H-benzo[d]imidazol-5-yl)-2,2,2-trifluoroethan-1-one], in data set [1], the EC50 was 2600 nM. Moreover, the solubility at 16 h in data set [2] is below 2 µM.

With `Cn1c(Nc2nc3ccccc3o2)nc2cc(C(N)C(F)(F)F)ccc21` (stereo not shown) [Example 141, N-(5-(1-amino-2,2,2-trifluoroethyl)-1-methyl-1H-benzo[d]imidazol-2-yl)benzo[d]oxazol-2-amine], in data set [1], the EC50 was 3600 nM. The solubility at 16 h in data set [2] stood at 9 µM (≈ 3.25 µg/mL).
